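Five concentrations, 48 hours, 96-well plates. GI50 marks 50% less growth.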 Active and inactive are the calls of the source. Cut-off read from the data, not from the text of the source: active = GI50 up to about 1.1 µM and inactive = higher.
Columns and labels:
Test in all cases: NCI tumour cell line growth inhibition, 48 h
[1] = tested on: A498
[2] = tested on: A549
[3] = tested on: HCC 2998
[4] = tested on: HOP-92
[5] = tested on: HT-29
[6] = tested on: KM12
[7] = tested on: M14
[8] = tested on: M19-MEL
[9] = tested on: MCF7
[10] = tested on: MDA-MB-435
[11] = tested on: MDA-N
[12] = tested on: NCI-H226
[13] = tested on: NCI-H23
[14] = tested on: PC-3
[15] = tested on: SK-MEL-28
[16] = tested on: SK-OV-3
[17] = tested on: SR
[18] = tested on: TK-10
[19] = tested on: UACC-62
[20] = tested on: UO-31

| SMILES | GI50 [1] | GI50 [2] | GI50 [3] | GI50 [4] | GI50 [5] | GI50 [6] | GI50 [7] | GI50 [8] | GI50 [9] | GI50 [10] | GI50 [11] | GI50 [12] | GI50 [13] | GI50 [14] | GI50 [15] | GI50 [16] | GI50 [17] | GI50 [18] | GI50 [19] | GI50 [20] |
| --- | --- | --- | --- | --- | --- | --- | --- | --- | --- | --- | --- | --- | --- | --- | --- | --- | --- | --- | --- | --- |
| CC1=C(C(=O)Nc2ccccc2C)C(c2ccc(C3C(C(=O)Nc4ccccc4C)=C(C)NC(C)=C3C(=O)Nc3ccccc3C)cc2)C(C(=O)Nc2ccccc2C)=C(C)N1 | 15.5 µM (inactive) | 10.8 µM (inactive) | 4.51 µM (inactive) | 8.38 µM (inactive) | 2.03 µM (inactive) | 2.16 µM (inactive) | 2.82 µM (inactive) | 3.83 µM (inactive) | 3.37 µM (inactive) | 4.32 µM (inactive) | 5.6 µM (inactive) | 14.1 µM (inactive) | 3.21 µM (inactive) | 4.39 µM (inactive) | 2.04 µM (inactive) | 15.3 µM (inactive) | 2.67 µM (inactive) | 10.7 µM (inactive) | 2.03 µM (inactive) | 13.4 µM (inactive) |
| COC(=O)CCC(NC(=S)N/N=C(\C)c1cnccn1)C(=O)OC (configuration not stated) | > 100 µM (inactive) | 58.7 µM (inactive) | 56.5 µM (inactive) | > 100 µM (inactive) | 93.3 µM (inactive) | 70.6 µM (inactive) | 42.4 µM (inactive) | 39.5 µM (inactive) |  |  |  | 44.5 µM (inactive) | 87.5 µM (inactive) |  | 55.8 µM (inactive) | > 100 µM (inactive) | 29.2 µM (inactive) | > 100 µM (inactive) | 28.6 µM (inactive) | 49.1 µM (inactive) |
| COc1ccc2nc3cc(Cl)ccc3c(NC(C)CCCN(CCCl)CCCl)c2c1 (configuration not stated) | 3.12 µM (inactive) | 0.474 µM (active) | 1.35 µM (inactive) | 0.569 µM (active) | 0.272 µM (active) | 0.52 µM (active) | 0.809 µM (active) | 0.598 µM (active) |  |  |  | 0.387 µM (active) | 0.51 µM (active) |  | 5 µM (inactive) | 0.83 µM (active) | 0.0463 µM (active) | 1.3 µM (inactive) | 0.29 µM (active) | 2.04 µM (inactive) |
